Assay results reported in US10538742B2, “Methods and means related to cancer stem cells” (Cambridge Enterprise Limited, priority 2004, dated 2020).

Tests used:
MCF-7 cells = test: Treatment of MCF-7 cells with gamma secretase inhibitor, SP quantitated; format: cell-based, human; settings: 10 uM reserpine during SP analysis
Description: FIG. 10A-10D illustrates the results of a screen for anti-cancer stem cell activity using the MCF-7 cancer cell line. MCF-7 cells were incubated with 1 uM gamma secretase inhibitor (Calbiochem, San Diego, catalog number 565750) for 7 days (B, D). Control cells were cultured without a gamma secretase inhibitor (A, C). Following drug treatment, cells were washed, and then the SP was analyzed as described herein, in the presence (C, D) or absence (A, B) of 10 uM reserpine. The percentage of SP cells in the culture is given for each experimental condition.
MCF-7 cells were cultured in serum-containing media, as described above. Cells were harvested from the cultures, washed, and resuspended in gamma secretase inhibitor I. Gamma secretase inhibitor I was purchased from Calbiochem™ (San Diego, Calif.; Catalog number 565750). The gamma secretase inhibitor was added to the cultures at a final concentration of 1 uM. Cells were treated for 7 days, and the SP was quantitated as described.
The invention includes methods for evaluating compounds for anti-cancer stem cell activity by monitoring the SP cell population of a cancer cell line. In this experiment, MCF-7 cells were treated with a gamma secretase inhibitor, as described above. […] Therefore, gamma secretase inhibitors could affect cancer stem cells expressing the Notch protein. […]

B104 neuroblastoma cells = test: SP analysis by Hoechst 33342 flow cytometry, B104 neuroblastoma cells; format: cell-based, rat; settings: 50 μM verapamil during Hoechst 33342 labeling
Description: (§1) To identify and isolate the SP cells in the cancer cell lines, the lines were cultured as described above, in either FCS or serum-free culture medium with bFGF, PDGF, or both. The cells were removed from the culture dish with trypsin and EDTA GIBCO BRL), washed, suspended at 10^6 cells per ml in DMEM containing 2% FCS (staining medium), and preincubated in 1.5-ml Eppendorf tube at 37° C. for 10 min. The cells were then labeled in the same medium at 37° C. for 90 min with 2.5 μg/ml Hoechst 33342 dye (Molecular Probes), either alone or in combination with 50 μM verapamil (Sigma), which is an inhibitor of some (verapamil-sensitive) ABC transporters (Goodell, M. A. (1996) J. Exp. Med. 183 1797-1806.). Finally, the cells were counterstained with 1 μg/ml propidium iodide to label dead cells. Then, 3-5×10^4 cells were analyzed in a FACSVantage fluorescence-activated cell sorter (Becton Dickinson) by using dual-wavelength analysis (blue, 424-444 nm; red, 675 nm) after excitation with 350-nm UV light. Propidium iodide-positive dead cells (15%) were excluded from the analysis. In the case of the C6 cell line, the SP cells or non-SP cells were sorted and cultured in serum-free culture medium with bFGF and PDGF.
(§2) They were then analyzed by flow cytometry. […] No SP cells were detected in the two human osteosarcoma lines (U-20S and SaOS-2).

C6 glioma cells = test: SP analysis by Hoechst 33342 flow cytometry, C6 glioma cells; format: cell-based, rat; settings: 50 μM verapamil during Hoechst 33342 labeling
Description: as §1, §2

HeLa carcinoma cells = test: SP analysis by Hoechst 33342 flow cytometry, HeLa carcinoma cells; format: cell-based, human; settings: 50 μM verapamil during Hoechst 33342 labeling
Description: as §1, §2

MCF7 breast cancer cells = test: SP analysis by Hoechst 33342 flow cytometry, MCF7 breast cancer cells; format: cell-based, human; settings: 50 μM verapamil during Hoechst 33342 labeling
Description: as §1, §2

MCF7 cells = test: MCF7 SP cell expansion in serum-free medium with growth factors; format: cell-based, human; settings: growth factor 10 ng/ml, 7 days, in FCS less than 0.8%
Description: The cells were cultured in FCS (A) or serum-free medium with bFGF (B), EGF (C), or both (D) for 7 days and were analyzed by flow cytometry. The SP is outlined and shown as a % of the total cell population.
(§3) The cells were cultured in DMEM, supplemented with 10% FCS, 100 units/ml penicillin G, and 100 μg/ml streptomycin (GIBCO). In some experiments, C6 cells were cultured in serum-free DMEM containing 10 μg/ml bovine insulin, 100 μg/ml human transferrin, 100 μg/ml BSA, 60 ng/ml progesterone, 16 μg/ml putrescine, 40 ng/ml sodium selenite, 63 μg/ml N-acetylcysteine, 5 μM forskolin, 50 units/ml penicillin, and 50 μg/ml streptomycin (GIBCO), as well as one or both of 10 ng/ml bFGF and 10 ng/ml PDGF, or one or both of bFGF (10 ng/ml) and EGF (10 ng/ml).
MCF7 Cell Expansion MCF7 cells were cultured in 10% FCS (FIG. 7A) or in serum-free culture medium with bFGF (FIG. 7B), EGF (FIG. 7C), or both (FIG. 7D) for 7 days. […] Cells were stained with Hoechst dye and analyzed by flow cytometry. When cultured in FCS, less than 0.8% of the cells are SP cells. By contrast, when cultured in serum-free medium with bFGF, EGF or both, 5.1%, 3.5%, or 6.2% of the cells, respectively, are SP cells.

C6 cells = test: C6 SP cell expansion in serum-free medium with bFGF and PDGF; format: cell-based, rat; settings: 10 ng/ml growth factor, up to 3 weeks
Description: as §3
To identify and isolate the SP cells in the cancer cell lines, the lines were cultured as described above, in either FCS or serum-free culture medium with bFGF, PDGF, or both. […] Then, 3-5×10^4 cells were analyzed in a FACSVantage fluorescence-activated cell sorter (Becton Dickinson) by using dual-wavelength analysis (blue, 424-444 nm; red, 675 nm) after excitation with 350-nm UV light. […]
The cells were stained with Hoechst 33342 and analyzed by flow cytometry. […]
To investigate the individual roles of PDGF and bFGF in expanding C6 SP cells, C6 cells were cultured in either bFGF or PDGF for 2 weeks and then in bFGF plus PDGF for an additional 2 weeks. The cells were then stained with Hoechst 33342 and analyzed by flow cytometry. […]

`COC(=O)[C@H]1[C@H]2C[C@@H]3c4[nH]c5cc(OC)ccc5c4CCN3C[C@H]2C[C@@H](OC(=O)c2cc(OC)c(OC)c(OC)c2)[C@@H]1OC` [reserpine] was tested, and the “SP in the presence of reserpine” value (MCF-7 cells) was “no SP is visible”.

For `COc1ccc(CCN(C)CCCC(C#N)(c2ccc(OC)c(OC)c2)C(C)C)cc1OC` (stereo not drawn) [verapamil], the “SP (side population) on treatment with verapamil” value (from here on “SP (side population) on treatment”) (B104 neuroblastoma cells) was “decreased greatly”, the “SP (side population) on treatment” value (C6 glioma cells) was “decreased greatly” and the “SP (side population) on treatment” value (HeLa carcinoma cells) was “decreased greatly”. For the same compound, the “SP (side population) on treatment” value (MCF7 breast cancer cells) was “decreased greatly”.

For “EGF: recombinant cytokine added to serum-free medium at 10 ng/ml”, the “% of the cells that are SP cells” value (MCF7 cells) was 3.5%.

In the case of PDGF, the “SP cells maintained or detected in culture” value (C6 cells) is reported as “few SP cells could be detected”.

With “bFGF: basic fibroblast growth factor, recombinant cytokine purchased from PeproTech” the “SP cells maintained or detected in culture” value (C6 cells) was “few SP cells could be detected” and the “% of the cells that are SP cells” value (MCF7 cells) was 5.1%.
